In US11318111B2, “CCL5 inhibitors” (LAPKO INC., priority 2018, dated 2022):

Experiments:
hand and facial eczema = test: Topical treatment of patients with hand and facial eczema; format: in vivo, human; settings: four patients, topically applied in cream base over 14 days
Protocol: To test the effect of the compounds on treatment of human dermatologic disorders associated with increased CCL5 production by keratinocytes, Compound 11 and Compound 21 were formulated into a topically applied cream at a concentration of 7%. The compounds in the cream base were applied topically to human subjects suffering from dermatitis in an area of the skin with active skin lesions. The control was the topical cream base composition without the active compounds. Outcome was measured by reduction or disappearance to the lesion in the treated area vs the control area.
Eczema: Four patients with hand and facial eczema were treated with Compound 97 topically applied in a cream base over a period of 14 days. By day 7 the eczema had resolved in the area treated in three of the patients and by day 12 in the fourth patient. The eczema persisted in the areas not so treated.

rosacea = test: Topical treatment of patients with rosacea; format: in vivo, human; settings: two patients, lotion form, 28 days; not in the untreated areas
Protocol: Rosacea: Two patients with rosacea were treated with Compound 25 for 28 days in a lotion form.

Structure (SMILES)	eczema resolved in treated area by day (fourth patient) (hand and facial eczema; the fourth patient) [days]	eczema resolved in treated area by day (three of the patients) (hand and facial eczema; three of the patients, eczema persisted in untreated areas) [days]	rosacea in treated area at end of course of therapy (rosacea)
CC(C)OC(=O)C(C)(C)Oc1ccc(C(=O)c2ccc(Cl)cc2)cc1 [Compound 97]	≤ 12	≤ 7	
CC(C)OC(=O)C(C)(C)Oc1ccc(C(F)(F)F)cc1 [Compound 25]			nearly disappeared
